{
  "source": "patent US10538561B2",
  "about": "“Peptide for treating inflammatory diseases” (priority 2015, dated 2020)",
  "key": {"JAK1": {"molecular_target": "JAK1 (Homo sapiens, UniProt P23458)", "sequence (P23458 whole entry)": "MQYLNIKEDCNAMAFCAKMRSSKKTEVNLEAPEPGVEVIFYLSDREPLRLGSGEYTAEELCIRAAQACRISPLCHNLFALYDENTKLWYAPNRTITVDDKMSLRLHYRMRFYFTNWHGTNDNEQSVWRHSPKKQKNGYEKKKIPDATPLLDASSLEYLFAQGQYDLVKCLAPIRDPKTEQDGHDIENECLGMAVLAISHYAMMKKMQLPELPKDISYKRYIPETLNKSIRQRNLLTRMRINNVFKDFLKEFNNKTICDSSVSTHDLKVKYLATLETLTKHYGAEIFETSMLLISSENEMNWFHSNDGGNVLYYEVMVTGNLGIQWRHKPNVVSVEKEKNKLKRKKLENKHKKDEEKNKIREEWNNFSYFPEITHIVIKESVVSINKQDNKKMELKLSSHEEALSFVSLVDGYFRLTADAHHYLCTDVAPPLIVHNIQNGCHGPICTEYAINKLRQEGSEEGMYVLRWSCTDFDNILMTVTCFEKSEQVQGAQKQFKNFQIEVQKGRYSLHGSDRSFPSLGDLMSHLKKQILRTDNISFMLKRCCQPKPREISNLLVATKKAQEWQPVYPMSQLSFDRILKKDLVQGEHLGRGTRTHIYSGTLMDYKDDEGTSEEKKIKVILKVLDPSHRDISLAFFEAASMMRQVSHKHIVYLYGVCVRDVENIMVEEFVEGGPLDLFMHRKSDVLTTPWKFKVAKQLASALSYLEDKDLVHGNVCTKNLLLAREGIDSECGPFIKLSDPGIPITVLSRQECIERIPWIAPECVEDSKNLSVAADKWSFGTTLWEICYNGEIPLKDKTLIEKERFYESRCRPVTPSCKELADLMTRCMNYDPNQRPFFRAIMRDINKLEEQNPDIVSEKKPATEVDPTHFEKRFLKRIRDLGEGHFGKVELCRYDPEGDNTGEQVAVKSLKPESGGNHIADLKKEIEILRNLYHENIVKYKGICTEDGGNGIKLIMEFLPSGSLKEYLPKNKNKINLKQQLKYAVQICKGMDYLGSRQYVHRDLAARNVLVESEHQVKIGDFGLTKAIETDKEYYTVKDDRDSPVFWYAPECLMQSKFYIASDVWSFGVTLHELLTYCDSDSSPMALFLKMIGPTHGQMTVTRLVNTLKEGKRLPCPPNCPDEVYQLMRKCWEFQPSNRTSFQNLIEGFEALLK", "assay": "Biochemical kinase assay JAK1", "description": "Test system: cell free assays; test items: IS181; concentrations tested: 1 ng/ml-5000 μg/ml; Kinases: a) Cell free assays: EGFR (ErbB1); FLT1 (VEGFR1); JAK1; JAK3 MAP2K1 (MEK1); PDGFRA (PDGFR alpha); PRKCA (PKC alpha); b) cell based assay: JAK-STAT."}, "[1]": {"system": "Human Keratinocytes (HaCaT)", "assay": "TUNEL assay", "format": "cell-based", "conditions": "48 h", "description": "Cell lines: Human Keratinocytes (HaCaT); test item (TI): IS181; treatment regimen: treated twice (once after 24 hours)-48 hours; Concentration range: 100 6 g/ml-5000 6 g/ml. […] Cells were sera starved in 1% FBS for 24 hours. Cells were treated with IS181 for 24 hours. After 24 h, cells were again treated with IS181 for 24 hours. After 48 h of first treatment, cells were processed for TUNEL staining. Fold increase in apoptotic cells [TUNEL positive] was calculated with respect to untreated control cells. Positive control: Curcumin, Anthralin, Betullinic acid. […] No increase in TUNEL positive cells was observed from 100 μg/ml-2000 μg/ml."}, "[2]": {"system": "HaCaT (Human keratinocyte) cell line", "assay": "Mitochondrial membrane potential by JC-1 assay", "format": "cell-based", "conditions": "20 h", "description": "For testing Apoptosis the Human Keratinocytes (HaCaT) cell line has been employed. The growth conditions are DMEM containing 1% FBS. […] Test concentration range is IS181 is tested at the highest (Qualitative analysis) effective concentrations selected on the basis of Quantitative JC-1 assay. The method of estimation is Mitochondrial membrane depolarization by JC-1 assay (Early apoptosis), LDH enzyme release (Necrosis). Treatment regimen & time points are JC-1 assay—Single addition, 20 h; LDH assay—Single addition, 24 h; Positive control: Triton-X-100, Doxorubicin-hydrochloride\nQuantitative effect on Δψm (Red fluorescence/Green fluorescence) in HaCaT cells post 20 hours of treatment. […] Evaluation (Qualitative and quantitative) of differential JC-1 staining in treated cells after 20 h on incubation with the test peptides."}, "[3]": {"system": "Human Keratinocytes (HaCaT)", "assay": "Cell viability (MTT assay) in HaCaT", "format": "cell-based", "conditions": "for IC50 value / cytotoxicity: HaCaT", "description": "(§1) Cell Lines/Cells: Human Keratinocytes (HaCaT); Human melanoma (SK-MEL-28); Human PBMCs. Test Item: IS181 Treatment regimen: Single addition—24 h, ^#Multiple additions (3)−72 h; Concentration range: 1 ng/ml-2 mg/ml (triplicate wells); Sera Condition: […] Method of estimation: MTT assay. […] Positive control: Triton-X-100, Doxorubicin Hydrochloride."}, "[4]": {"assay": "Cell viability (MTT assay) in HaCaT", "format": "cell-based, Human", "conditions": "human, HaCaT keratinocytes, HaCaT, 1% FBS", "description": "as §1"}},
  "data": [
    {"substance": "H-WVQRVVEKFLK-OH [IS181, H-Trp-Val-Gln-Arg-Val-Val-Glu-Lys-Phe-Leu-Lys-OH]", "values": [
      {"measurement": "inhibition at 10 µg/mL", "setting": "JAK1; 10 μg/ml", "value": 14, "unit": "%"},
      {"measurement": "inhibition at 50 µg/mL", "setting": "JAK1; cell free, 50 μg/ml", "value": 14, "unit": "%"},
      {"measurement": "inhibition at 100 µg/mL", "setting": "JAK1; cell free, 100 μg/ml", "value": -42, "unit": "%"},
      {"measurement": "inhibition at 250 µg/mL", "setting": "JAK1; cell free, 250 μg/ml", "value": -93, "unit": "%"},
      {"measurement": "inhibition at 500 µg/mL", "setting": "JAK1; cell free, 500 μg/ml", "value": -185, "unit": "%"},
      {"measurement": "increase in TUNEL positive cells", "setting": "[1]; 100 μg/ml-2000 μg/ml", "value": "No increase"},
      {"measurement": "increase in apoptotic cells (TUNEL positive population) vs untreated", "setting": "[1]; 5000 μg/ml", "value": 28.3, "unit": "%"},
      {"measurement": "Green fluorescence intensity (RFU)", "setting": "[2]; 400 μg/ml", "value": "13.67 ± 1.89", "unit": "RFU"},
      {"measurement": "Red fluorescence intensity (RFU)", "setting": "[2]; 400 μg/ml", "value": "134.33 ± 32.06", "unit": "RFU"},
      {"measurement": "Red fluorescence intensity/Green fluorescence intensity", "setting": "[2]; 400 μg/ml", "value": 9.83},
      {"measurement": "Green fluorescence intensity (RFU)", "setting": "[2]; 475 μg/ml", "value": "14.83 ± 3.54", "unit": "RFU"},
      {"measurement": "Red fluorescence intensity (RFU)", "setting": "[2]; 475 μg/ml", "value": "150.67 ± 11.31", "unit": "RFU"},
      {"measurement": "Red fluorescence intensity/Green fluorescence intensity", "setting": "[2]; 475 μg/ml", "value": 10.16},
      {"measurement": "Green fluorescence intensity (RFU)", "setting": "[2]; 500 μg/ml", "value": "14.5 ± 2.12", "unit": "RFU"},
      {"measurement": "Red fluorescence intensity (RFU)", "setting": "[2]; 500 μg/ml", "value": "152.83 ± 31.82", "unit": "RFU"},
      {"measurement": "Red fluorescence intensity/Green fluorescence intensity", "setting": "[2]; 500 μg/ml", "value": 10.54},
      {"measurement": "Green fluorescence intensity (RFU)", "setting": "[2]; 750 μg/ml", "value": "17.67 ± 4.24", "unit": "RFU"},
      {"measurement": "Red fluorescence intensity (RFU)", "setting": "[2]; 750 μg/ml", "value": "126.17 ± 6.36", "unit": "RFU"},
      {"measurement": "Red fluorescence intensity/Green fluorescence intensity", "setting": "[2]; 750 μg/ml", "value": 7.14},
      {"measurement": "decrease in mitochondrial membrane potential (R/G ratio) as compared to untreated cells", "setting": "[2]; 750 μg/ml to 2 mg/ml", "value": "34% to 88.6%"},
      {"measurement": "Green fluorescence intensity (RFU)", "setting": "[2]; 1000 μg/ml", "value": "^#25.83 ± 5.42^ RFU"},
      {"measurement": "Red fluorescence intensity (RFU)", "setting": "[2]; 1000 μg/ml", "value": "^#102.25 ± 4.60 ^ RFU"},
      {"measurement": "Red fluorescence intensity/Green fluorescence intensity", "setting": "[2]; 1000 μg/ml", "value": 3.96},
      {"measurement": "Green fluorescence intensity (RFU)", "setting": "[2]; 2000 μg/ml", "value": "#41.25 ± 15.20 RFU"},
      {"measurement": "Red fluorescence intensity (RFU)", "setting": "[2]; 2000 μg/ml", "value": "^#50.58 ± 0.12^ RFU"},
      {"measurement": "Red fluorescence intensity/Green fluorescence intensity", "setting": "[2]; 2000 μg/ml", "value": "**1.23"},
      {"measurement": "IC50", "setting": "[3]; 24 h", "value": 470, "unit": "µM"},
      {"measurement": "Selectivity Index -IC50 (PBMC)/IC50 (HaCaT/SK-MEL-28 cells)", "setting": "[3]; 24 h", "value": 3},
      {"measurement": "selectivity of cytotoxic activity against human keratinocytes", "setting": "[3]; 24 h", "value": "selective cytotoxic activity"},
      {"measurement": "IC50", "setting": "[3]; 72 h", "value": 290, "unit": "µM"},
      {"measurement": "Selectivity Index -IC50 (PBMC)/IC50 (HaCaT/SK-MEL-28 cells)", "setting": "[3]; 72 h", "value": 2},
      {"measurement": "IC50 value", "setting": "[3]; 24 h", "value": 670, "unit": "µg/mL"},
      {"measurement": "cytotoxicity", "setting": "[3]; 24 h, at concentrations 2 mg/ml", "value": "87%-91%"},
      {"measurement": "IC50 value", "setting": "[3]; 72 h", "value": 420, "unit": "µg/mL"},
      {"measurement": "cytotoxicity", "setting": "[3]; 72 h, concentrations ≥0.5 mg/ml", "value": "58%-90%"},
      {"measurement": "cytotoxicity at 24 h, 0.1 μg/ml", "setting": "[4]; 24 h, 0.1 μg/ml", "value": -1.4, "unit": "%"},
      {"measurement": "cytotoxicity at 24 h, 0.5 μg/ml", "setting": "[4]; 24 h, 0.5 μg/ml", "value": -4.61, "unit": "%"},
      {"measurement": "cytotoxicity at 24 h, 1 μg/ml", "setting": "[4]; 24 h, 1 μg/ml", "value": 4.88, "unit": "%"},
      {"measurement": "cytotoxicity at 24 h, 5 μg/ml", "setting": "[4]; 24 h, 5 μg/ml", "value": 8.43, "unit": "%"},
      {"measurement": "cytotoxicity at 24 h, 10 μg/ml", "setting": "[4]; 24 h, 10 μg/ml", "value": 5.75, "unit": "%"},
      {"measurement": "cytotoxicity at 24 h, 50 μg/ml", "setting": "[4]; 24 h, 50 μg/ml", "value": 1.79, "unit": "%"},
      {"measurement": "cytotoxicity at 24 h, 100 μg/ml", "setting": "[4]; 24 h, 100 μg/ml", "value": -0.58, "unit": "%"},
      {"measurement": "cytotoxicity at 24 h, 500 μg/ml", "setting": "[4]; 24 h, 500 μg/ml", "value": 18.9, "unit": "%"},
      {"measurement": "cytotoxicity at 24 h, 1000 μg/ml", "setting": "[4]; 24 h, 1000 μg/ml", "value": 87.8, "unit": "%"},
      {"measurement": "cytotoxicity at 24 h, 2000 μg/ml", "setting": "[4]; 24 h, 2000 μg/ml", "value": 91.3, "unit": "%"},
      {"measurement": "cytotoxicity at 72 h, 0.1 μg/ml", "setting": "[4]; 72 h, 0.1 μg/ml", "value": -56.2, "unit": "%"},
      {"measurement": "cytotoxicity at 72 h, 0.5 μg/ml", "setting": "[4]; 72 h, 0.5 μg/ml", "value": -75.4, "unit": "%"},
      {"measurement": "cytotoxicity at 72 h, 1 μg/ml", "setting": "[4]; 72 h, 1 μg/ml", "value": -66.1, "unit": "%"},
      {"measurement": "cytotoxicity at 72 h, 5 μg/ml", "setting": "[4]; 72 h, 5 μg/ml", "value": -37.5, "unit": "%"},
      {"measurement": "cytotoxicity at 72 h, 10 μg/ml", "setting": "[4]; 72 h, 10 μg/ml", "value": -44.5, "unit": "%"},
      {"measurement": "cytotoxicity at 72 h, 50 μg/ml", "setting": "[4]; 72 h, 50 μg/ml", "value": -33, "unit": "%"},
      {"measurement": "cytotoxicity at 72 h, 100 μg/ml", "setting": "[4]; 72 h, 100 μg/ml", "value": -42.5, "unit": "%"},
      {"measurement": "cytotoxicity at 72 h, 500 μg/ml", "setting": "[4]; 72 h, 500 μg/ml", "value": 58.5, "unit": "%"},
      {"measurement": "cytotoxicity at 72 h, 1000 μg/ml", "setting": "[4]; 72 h, 1000 μg/ml", "value": 91, "unit": "%"},
      {"measurement": "cytotoxicity at 72 h, 2000 μg/ml", "setting": "[4]; 72 h, 2000 μg/ml", "value": 89.4, "unit": "%"}
    ]}
  ]
}
